According to US10212936B2, “Molecules having pesticidal utility, and intermediates, compositions, and processes, related thereto” (priority 2014, dated 2019):

Columns and labels:
Assay type in all cases: in vivo
[1] = system: Cabbage Looper (Trichoplusia ni, TRIPNI); assay: Bioassay on Cabbage Looper (CL), 128-well diet tray assay; details: 168 h, 50 μg/cm^2 on artificial diet, second instar larvae, five to seven days, 25° C., read-out: CL % Control (or Mortality) rating
Method: (§1) Example A: Bioassays on Beet Armyworm (Spodoptera exigua, LAPHEG) (“BAW”), Corn Earworm (Helicoverpa zea, HELIZE) (“CEW”), and Cabbage Looper (Trichoplusia ni, TRIPNI) (“CL”)
(§2) Certain molecules disclosed in this document were tested against BAW, CEW, and CL using procedures described in the following examples. In the reporting of the results, the “BAW, CEW, & CL Rating Table” was used (See Table Section).
Bioassays on CL were conducted using a 128-well diet tray assay. one to five second instar CL larvae were placed in each well (3 mL) of the diet tray that had been previously filled with 1 mL of artificial diet to which 50 μg/cm^2 of the test molecule (dissolved in 50 μL of 90:10 acetone-water mixture) had been applied (to each of eight wells) and then allowed to dry. Trays were covered with a clear self-adhesive cover and held at 25° C., 14:10 light-dark for five to seven days. Percent mortality was recorded for the larvae in each well; activity in the eight wells was then averaged. The results are indicated in the table entitled “Table ABC: Biological Results” (See Table Section).

[2] = system: Beet Armyworm (Spodoptera exigua, LAPHEG); assay: Bioassay on Beet Armyworm (BAW), 128-well diet tray assay; details: 168 h, 50 μg/cm^2 on artificial diet, second instar larvae, five to seven days, 25° C., read-out: BAW % Control (or Mortality) rating
Method: as §1, §2
Bioassays on BAW were conducted using a 128-well diet tray assay. one to five second instar BAW larvae were placed in each well (3 mL) of the diet tray that had been previously filled with 1 mL of artificial diet to which 50 μg/cm^2 of the test molecule (dissolved in 50 μL of 90:10 acetone-water mixture) had been applied (to each of eight wells) and then allowed to dry. Trays were covered with a clear self-adhesive cover and held at 25° C., 14:10 light-dark for five to seven days. Percent mortality was recorded for the larvae in each well; activity in the eight wells was then averaged. The results are indicated in the table entitled “Table ABC: Biological Results” (See Table Section).

[3] = system: Yellow Fever Mosquito (Aedes aegypti, AEDSAE); assay: Bioassay on Yellow Fever Mosquito (YFM) larvae, 96-well plate; details: about 1 day-old larvae, 4000 ppm DMSO master plate diluted, graded after 3 days
Method: Example C: Bioassays on Yellow Fever Mosquito (Aedes aegypti, AEDSAE) (“YFM”)
Certain molecules disclosed in this document were tested against YFM using procedures described in the following paragraph. In the reporting of the results, the “YFM Rating Table” was used (See Table Section).
Master plates containing 400 μg of a molecule dissolved in 100 μL of dimethyl sulfoxide (DMSO) (equivalent to a 4000 ppm solution) are used. A master plate of assembled molecules contains 15 μL per well. To this plate, 135 μL of a 90:10 water:acetone mixture is added to each well. A robot (Biomek® NXP Laboratory Automation Workstation) is programmed to dispense 15 μL aspirations from the master plate into an empty 96-well shallow plate (“daughter” plate). There are 6 reps (“daughter” plates) created per master. The created daughter plates are then immediately infested with YFM larvae.
The day before plates are to be treated, mosquito eggs are placed in Millipore water containing liver powder to begin hatching (4 g. into 400 mL). After the daughter plates are created using the robot, they are infested with 220 μL of the liver powder/larval mosquito mixture (about 1 day-old larvae). After plates are infested with mosquito larvae, a non-evaporative lid is used to cover the plate to reduce drying. Plates are held at room temperature for 3 days prior to grading. After 3 days, each well is observed and scored based on mortality. The results are indicated in the table entitled “Table ABC: Biological Results” (See Table Section).

Q: For CCOC(=O)c1cnn(-c2ccc(Cl)cc2C)c1NC(=O)Nc1ccc(-c2ncn(-c3ccc(OC(F)(F)F)cc3)n2)cc1 [F2, Ethyl 1-(4-chloro-2-methylphenyl)-5-(3-(4-(1-(4-(trifluoromethoxy)phenyl)-1H-1,2,4-triazol-3-yl)phenyl)ureido)-1H-pyrazole-4-carboxylate], which mortality at 50 µg/cm2 [1] is on record?
A: 0%

Q: What about the mortality at 50 µg/cm2 [2] of the same compound?
A: 0%

Q: What about the “YFM % Control (or Mortality) rating” value [3] of the same compound?
A: D (No activity noticed in this bioassay)

Q: Which mortality at 50 µg/cm2 [1] does the source give for Cc1ccc(C)c(-c2ncsc2NC(=O)NCCc2ccc(-c3ncn(-c4ccc(OC(F)(F)F)cc4)n3)cc2)c1 [F62, 1-(4-(2,5-Dimethylphenyl)thiazol-5-yl)-3-(4-(1-(4-(trifluoromethoxy)phenyl)-1H-1,2,4-triazol-3-yl)phenethyl)urea] here?
A: 50 to 100%

Q: And the mortality at 50 µg/cm2 [2]?
A: 0%

Q: What about the “YFM % Control (or Mortality) rating” value [3] of the same compound?
A: A (80-100)

Q: How did the mortality at 50 µg/cm2 [1] turn out when Cc1cccc(C)c1C1=C(NC(=O)NCCc2ccc(-c3ncn(-c4ccc(OC(F)(F)F)cc4)n3)cc2)OCC1=O [F55, 1-(3-(2,6-Dimethylphenyl)-4-oxo-4,5-dihydrofuran-2-yl)-3-(4-(1-(4-(trifluoromethoxy)phenyl)-1H-1,2,4-triazol-3-yl)phenethyl)urea] was run?
A: 0%

Q: And the mortality at 50 µg/cm2 [2]?
A: 50 to 100%

Q: What about the “YFM % Control (or Mortality) rating” value [3] of the same compound?
A: A (80-100)

Q: For Cc1ccc(C)c(C2=C(NC(=O)NCCc3ccc(-c4ncn(-c5ccc(OC(F)(F)F)cc5)n4)cc3)OCC2=O)c1 [F56, 1-(3-(2,5-Dimethylphenyl)-4-oxo-4,5-dihydrofuran-2-yl)-3-(4-(1-(4-(trifluoromethoxy)phenyl)-1H-1,2,4-triazol-3-yl)phenethyl)urea], which mortality at 50 µg/cm2 [1] is on record?
A: 50 to 100%

Q: And the mortality at 50 µg/cm2 [2]?
A: 50 to 100%

Q: And the “YFM % Control (or Mortality) rating” value [3]?
A: A (80-100)

Q: What does the source list for O=C(Nc1ccc(-c2ncn(-c3ccc(OC(F)(F)F)cc3)n2)cc1)Nc1nccn1-c1cccnc1 [F32, 1-(1-(Pyridin-3-yl)-1H-imidazol-2-yl)-3-(4-(1-(4-(trifluoromethoxy)phenyl)-1H-1,2,4-triazol-3-yl)phenyl)urea]?
A: mortality at 50 µg/cm2 [1]: 0 to 50%; mortality at 50 µg/cm2 [2]: 50 to 100%

Q: Which results are given for Cn1oc(NC(=O)NCCc2ccc(-c3ncn(-c4ccc(OC(F)(F)F)cc4)n3)cc2)c(-c2c(Cl)cccc2Cl)c1=O [F60, 1-(4-(2,6-Dichlorophenyl)-2-methyl-3-oxo-2,3-dihydroisoxazol-5-yl)-3-(4-(1-(4-(trifluoromethoxy)phenyl)-1H-1,2,4-triazol-3-yl)phenethyl)urea]?
A: mortality at 50 µg/cm2 [1]: 50 to 100%; mortality at 50 µg/cm2 [2]: 50 to 100%; YFM % Control (or Mortality) rating [3]: A (80-100)

Q: Cc1cc(C)c(-c2c(NC(=O)NCCc3ccc(-c4ncn(-c5ccc(OC(F)(F)F)cc5)n4)cc3)on(C)c2=O)c(C)c1 [F59, 1-(4-Mesityl-2-methyl-3-oxo-2,3-dihydroisoxazol-5-yl)-3-(4-(1-(4-(trifluoromethoxy)phenyl)-1H-1,2,4-triazol-3-yl)phenethyl)urea] was tested. Which mortality at 50 µg/cm2 [1] did it give?
A: 50 to 100%

Q: What about the mortality at 50 µg/cm2 [2] of the same compound?
A: 50 to 100%

Q: And the “YFM % Control (or Mortality) rating” value [3]?
A: A (80-100)

Q: For Cc1ccc(C)c(-c2c(NC(=O)NCCc3ccc(-c4ncn(-c5ccc(OC(F)(F)F)cc5)n4)cc3)on(C)c2=O)c1 [F57, 1-(4-(2,5-Dimethylphenyl)-2-methyl-3-oxo-2,3-dihydroisoxazol-5-yl)-3-(4-(1-(4-(trifluoromethoxy)phenyl)-1H-1,2,4-triazol-3-yl)phenethyl)urea], which mortality at 50 µg/cm2 [1] is on record?
A: 50 to 100%

Q: And the mortality at 50 µg/cm2 [2]?
A: 50 to 100%

Q: And the “YFM % Control (or Mortality) rating” value [3]?
A: A (80-100)

Q: How did the mortality at 50 µg/cm2 [1] turn out when O=C(NCCc1ccc(-c2ncn(-c3ccc(OC(F)(F)F)cc3)n2)cc1)Nc1nccs1 [F50, 1-(thiazol-2-yl)-3-(4-(1-(4-(trifluoromethoxy)phenyl)-1H-1,2,4-triazol-3-yl)phenethyl)urea] was run?
A: 0%

Q: What about the mortality at 50 µg/cm2 [2] of the same compound?
A: 0%

Q: And the “YFM % Control (or Mortality) rating” value [3]?
A: D (No activity noticed in this bioassay)

Q: How did the mortality at 50 µg/cm2 [1] turn out when CCc1ccccc1-c1ncsc1NC(=O)Nc1ccc(-c2ncn(-c3ccc(OC(F)(F)F)cc3)n2)cc1 [F49, 1-(4-(2-ethylphenyl)thiazol-5-yl)-3-(4-(1-(4-(trifluoromethoxy)phenyl)-1H-1,2,4-triazol-3-yl)phenyl)urea] was run?
A: 50 to 100%

Q: What about the mortality at 50 µg/cm2 [2] of the same compound?
A: 50 to 100%

Q: Which mortality at 50 µg/cm2 [1] does the source give for CC(C)CC(C)c1sccc1NC(=O)Nc1ccc(-c2ncn(-c3ccc(OC(F)(F)F)cc3)n2)cc1 (stereo not drawn) [F8, 1-(2-(4-Methylpentan-2-yl)thiophen-3-yl)-3-(4-(1-(4-(trifluoromethoxy)phenyl)-1H-1,2,4-triazol-3-yl)phenyl)urea] here?
A: 50 to 100%

Q: And the mortality at 50 µg/cm2 [2]?
A: 0%

Q: And the “YFM % Control (or Mortality) rating” value [3]?
A: D (No activity noticed in this bioassay)

Q: With O=C(NCCc1ccc(-c2ncn(-c3ccc(OC(F)(F)F)cc3)n2)cc1)NC1=C(c2c(Cl)cccc2Cl)C(=O)CO1 [F54, 1-(3-(2,6-Dichlorophenyl)-4-oxo-4,5-dihydrofuran-2-yl)-3-(4-(1-(4-(trifluoromethoxy)phenyl)-1H-1,2,4-triazol-3-yl)phenethyl)urea] as the compound, how does the mortality at 50 µg/cm2 [1] read?
A: 0%

Q: What about the mortality at 50 µg/cm2 [2] of the same compound?
A: 0%

Q: What about the “YFM % Control (or Mortality) rating” value [3] of the same compound?
A: A (80-100)

Q: Which results are given for O=C(NCCc1ccc(-c2ncn(-c3ccc(OC(F)(F)F)cc3)n2)cc1)Nc1scnc1-c1c(Cl)cccc1Cl [F64, 1-(4-(2,6-Dichlorophenyl)thiazol-5-yl)-3-(4-(1-(4-(trifluoromethoxy)phenyl)-1H-1,2,4-triazol-3-yl)phenethyl)urea]?
A: mortality at 50 µg/cm2 [1]: 50 to 100%; mortality at 50 µg/cm2 [2]: 0%; YFM % Control (or Mortality) rating [3]: A (80-100)

Q: Which results are given for COc1ccc(-c2ncsc2NC(=O)NCCc2ccc(-c3ncn(-c4ccc(OC(F)(F)F)cc4)n3)cc2)c(C)c1 [F63, 1-(4-(4-Methoxy-2-methylphenyl)thiazol-5-yl)-3-(4-(1-(4-(trifluoromethoxy)phenyl)-1H-1,2,4-triazol-3-yl)phenethyl)urea]?
A: mortality at 50 µg/cm2 [1]: 50 to 100%; mortality at 50 µg/cm2 [2]: 0%; YFM % Control (or Mortality) rating [3]: A (80-100)

Q: CC(C)c1ccccc1-c1c(NC(=O)NCCc2ccc(-c3ncn(-c4ccc(OC(F)(F)F)cc4)n3)cc2)on(C)c1=O [F58, 1-(4-(2-Isopropylphenyl)-2-methyl-3-oxo-2,3-dihydroisoxazol-5-yl)-3-(4-(1-(4-(trifluoromethoxy)phenyl)-1H-1,2,4-triazol-3-yl)phenethyl)urea] was tested. Which mortality at 50 µg/cm2 [1] did it give?
A: 50 to 100%

Q: And the mortality at 50 µg/cm2 [2]?
A: 50 to 100%

Q: What about the “YFM % Control (or Mortality) rating” value [3] of the same compound?
A: A (80-100)

Q: How did the mortality at 50 µg/cm2 [1] turn out when COc1ccc(-c2ncsc2NC(=O)Nc2ccc(-c3ncn(-c4ccc(OC(F)(F)F)cc4)n3)cc2)c(C)c1 [F46, 1-(4-(4-Methoxy-2-methylphenyl)thiazol-5-yl)-3-(4-(1-(4-(trifluoromethoxy)phenyl)-1H-1,2,4-triazol-3-yl)phenyl)urea] was run?
A: 50 to 100%

Q: What about the mortality at 50 µg/cm2 [2] of the same compound?
A: 50 to 100%

Q: What about the “YFM % Control (or Mortality) rating” value [3] of the same compound?
A: A (80-100)

Q: For O=C(Nc1ccc(-c2ncn(-c3ccc(OC(F)(F)F)cc3)n2)cc1)Nc1scnc1-c1c(Cl)cccc1Cl [F48, 1-(4-(2,6-Dichlorophenyl)thiazol-5-yl)-3-(4-(1-(4-(trifluoromethoxy)phenyl)-1H-1,2,4-triazol-3-yl)phenyl)urea], which “YFM % Control (or Mortality) rating” value [3] is on record?
A: A (80-100)

Q: Which results are given for O=C(NCCc1ccc(-c2ncn(-c3ccc(OC(F)(F)F)cc3)n2)cc1)Nc1ccnn1-c1ccccc1 [F51, 1-(1-phenyl-1H-pyrazol-5-yl)-3-(4-(1-(4-(trifluoromethoxy)phenyl)-1H-1,2,4-triazol-3-yl)phenethyl)urea]?
A: mortality at 50 µg/cm2 [1]: 0%; mortality at 50 µg/cm2 [2]: 0%

Q: With O=C(Nc1ccc(-c2ncn(-c3ccc(OC(F)(F)F)cc3)n2)cc1)Nc1nccn1-c1cc(Cl)cc(Cl)c1 [F28, 1-(1-(3,5-Dichlorophenyl)-1H-imidazol-2-yl)-3-(4-(1-(4-(trifluoromethoxy)phenyl)-1H-1,2,4-triazol-3-yl)phenyl)urea] as the compound, how does the mortality at 50 µg/cm2 [1] read?
A: 0%

Q: What about the mortality at 50 µg/cm2 [2] of the same compound?
A: 50 to 100%
